Literature values in patent US20240299549A1, “STABLE FORMULATIONS OF INDOCYANINE GREEN” (PROVEPHARM LIFE SOLUTIONS, priority 2021, published 2024).

Assays:
[1] = stored at 4° C. in the dark, three days
[2] = 10 hours of storage in water and direct light

**Q.** With `CC1(C)C(/C=C/C=C/C=C/C=C2\N(CCCCS(=O)(=O)[O-])c3ccc4ccccc4c3C2(C)C)=[N+](CCCCS(=O)(=O)[O-])c2ccc3ccccc3c21.[Na+]` [ICG, Indocyanine green] as the molecule, how does the fluorescence intensity lost [1] read?
**A.** 20%

**Q.** What about the “reduction of absorbance at spectral peak” value [2] of the same molecule?
**A.** 10%
